Experimental data reported in PubChem BioAssay AID2060341 (Molecular Pharmacology Branch, DTP, NCI, 2025).

System: 327498-153-R-J2-PDC multicell spheroid viability
Test: Anticancer human tumor 327498-153-R-J2-PDC patient-derived uterine carcinosarcoma cell line growth inhibition [IpAb]
Settings: for IC50: curve of first compound; for viability, T/C: stronger effect = lower value
Summary of the method: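 Spheroids of 60% malignant cells, 25% HUVEC and 15% MSC were exposed to targeted agents combined with ipatasertib or abemaciclib. Doses started at or near clinical Cmax (10 microM when unknown) and fell in half-log steps.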

[1] = second compound 0.1 µM, first compound 0.0316 µM
[2] = second compound 0.1 µM, first compound 0.1 µM
[3] = second compound 0.1 µM, first compound 0.316 µM
[4] = second compound 0.1 µM, first compound 1 µM
[5] = second compound 0.1 µM, first compound 3.16 µM
[6] = second compound 0.1 µM, first compound 10 µM
[7] = second compound 0.316 µM, first compound 0.0316 µM
[8] = second compound 0.316 µM, first compound 0.1 µM
[9] = second compound 0.316 µM, first compound 0.316 µM
[10] = second compound 0.316 µM, first compound 1 µM
[11] = second compound 0.316 µM, first compound 3.16 µM
[12] = second compound 0.316 µM, first compound 10 µM
[13] = second compound 1 µM, first compound 0.0316 µM
[14] = second compound 1 µM, first compound 0.1 µM
[15] = second compound 1 µM, first compound 0.316 µM
[16] = second compound 1 µM, first compound 1 µM
[17] = second compound 1 µM, first compound 3.16 µM
[18] = second compound 1 µM, first compound 10 µM
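For viability, T/C in this document: 100% = DMSO vehicle control viability.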

Structure (SMILES)	IC50 (second compound 0.1 µM) [µM]	IC50 (second compound 0.316 µM) [µM]	IC50 (second compound 1 µM) [µM]	viability, T/C [1] [%]	viability, T/C [2] [%]	viability, T/C [3] [%]	viability, T/C [4] [%]	viability, T/C [5] [%]	viability, T/C [6] [%]	viability, T/C [7] [%]	viability, T/C [8] [%]	viability, T/C [9] [%]	viability, T/C [10] [%]	viability, T/C [11] [%]	viability, T/C [12] [%]	viability, T/C [13] [%]	viability, T/C [14] [%]	viability, T/C [15] [%]	viability, T/C [16] [%]	viability, T/C [17] [%]	also measured
C=CCn1c(=O)c2cnc(Nc3ccc(N4CCN(C)CC4)cc3)nc2n1-c1cccc(C(C)(C)O)n1 + CC(C)NCC(C(=O)N1CCN(c2ncnc3c2C(C)CC3O)CC1)c1ccc(Cl)cc1	0.259	0.151	0.101	90.3	83.2	43.2	3.61	3.91	6.69	73.8	65.2	22.6	3.04	3.47	6.17	49.6	50.5	17.3	3.25	2.88	IC50 (second compound 3.16 µM): < 0.0316 µM; IC50 (second compound 10 µM): < 0.0316 µM; viability, T/C [18]: 5.72%; viability, T/C (second compound 3.16 µM, first compound 0.0316 µM): 45.1%; viability, T/C (second compound 3.16 µM, first compound 0.1 µM): 35.2%; viability, T/C (second compound 3.16 µM, first compound 0.316 µM): 11.5%; viability, T/C (second compound 3.16 µM, first compound 1 µM): 3.53%; viability, T/C (second compound 3.16 µM, first compound 3.16 µM): 3.4%; viability, T/C (second compound 3.16 µM, first compound 10 µM): 4.64%; viability, T/C (second compound 10 µM, first compound 0.0316 µM): 30.4%; viability, T/C (second compound 10 µM, first compound 0.1 µM): 27.4%; viability, T/C (second compound 10 µM, first compound 0.316 µM): 8.25%; viability, T/C (second compound 10 µM, first compound 1 µM): 3%; viability, T/C (second compound 10 µM, first compound 3.16 µM): 3.44%; viability, T/C (second compound 10 µM, first compound 10 µM): 4.49%
CC1(C)CCC(CN2CCN(c3ccc(C(=O)NS(=O)(=O)c4ccc(NCC5CCOCC5)c([N+](=O)[O-])c4)c(Oc4cnc5[nH]ccc5c4)c3)CC2)=C(c2ccc(Cl)cc2)C1 + CCN1CCN(Cc2ccc(Nc3ncc(F)c(-c4cc(F)c5nc(C)n(C(C)C)c5c4)n3)nc2)CC1	4.47	3.89	3.56	67.4	71.5	65.1	75.9	67.8	8.52	61.8	54.3	58.8	61.4	61.3	6.66	62.9	60.7	54.5	57.8	54.8	IC50 (second compound 0.01 µM): 5.02 µM; IC50 (second compound 0.0316 µM): 5.02 µM; viability, T/C (second compound 0.01 µM, first compound 0.0316 µM): 100%; viability, T/C (second compound 0.01 µM, first compound 0.1 µM): 91.6%; viability, T/C (second compound 0.01 µM, first compound 0.316 µM): 96.6%; viability, T/C (second compound 0.01 µM, first compound 1 µM): 86.9%; viability, T/C (second compound 0.01 µM, first compound 3.16 µM): 78.4%; viability, T/C (second compound 0.01 µM, first compound 10 µM): 10.2%; viability, T/C (second compound 0.0316 µM, first compound 0.0316 µM): 78%; viability, T/C (second compound 0.0316 µM, first compound 0.1 µM): 75.8%; viability, T/C (second compound 0.0316 µM, first compound 0.316 µM): 74.9%; viability, T/C (second compound 0.0316 µM, first compound 1 µM): 77.2%; viability, T/C (second compound 0.0316 µM, first compound 3.16 µM): 77.6%; viability, T/C (second compound 0.0316 µM, first compound 10 µM): 9.98%; viability, T/C [18]: 9.15%
